From ChEMBL document CHEMBL1135239, “Imidazo[5,1-f]triazin-4(3H)-ones, a new class of potent PDE 5 inhibitors” (Bioorg Med Chem Lett, 2002) come the findings set out here.

In general, IC50 refers to the concentration needed to halve the response being measured. A low value points to inhibition by little substance. Usually pIC50 stands for the IC50 on a negative log10 scale, so that one unit is a factor of ten.

pIC50: −log10 of the molar value.

The target in one experiment is Phosphodiesterase 1 (Bos taurus, UniProt Q01061+P14100). As to the kind of experiment: Inhibition of Phosphodiesterase 1. Type of experiment: protein assay.
A further experiment deals with Oryctolagus cuniculus. As to the kind of experiment: In vivo minimal effective dose for inhibition of phosphodiesterase in conscious rabbit model by peroral administration. In kind it is functional. The settings on record: po, read-out: MED.
In another experiment the target is Phosphodiesterase 3 (Homo sapiens, UniProt Q14432+Q13370). As to the kind of experiment: Inhibition of Phosphodiesterase 3. Type of experiment: protein assay.
In the next experiment the target is Phosphodiesterase 4 (Homo sapiens, UniProt P27815+Q08499+Q07343+Q08493). As to the kind of experiment: Inhibition of Phosphodiesterase 4. Type of experiment: protein assay.
The target of experiment [1] is cGMP-specific 3',5'-cyclic phosphodiesterase (Homo sapiens, UniProt O76074).

As for `CCCc1nc(C)c2c(O)nc(-c3cc(S(=O)(=O)N4CCN(CC)CC4)ccc3OCC)nn12.Cl` [VARDENAFIL HYDROCHLORIDE], the IC50 at Phosphodiesterase 1 stood at 180 nM. In addition, the minimal effective dose in the experiment with Oryctolagus cuniculus was 3 mg/kg.
As to `CCCOc1ccc(S(=O)(=O)N2CCN(C)CC2)cc1-c1nc2c(ncn2CCC)c(=O)[nH]1`, the IC50 against Phosphodiesterase 3 and against Phosphodiesterase 4 was more than 500 nM throughout.
With `CCCOc1ccccc1-c1nc2c(ncn2CCC)c(=O)[nH]1`, the IC50 against Phosphodiesterase 3 and against Phosphodiesterase 4 was more than 500 nM each time. In experiment [1], the pIC50 was 8.00.
Turning to `CCCc1nc(C)c2c(=O)[nH]c(-c3ccccc3OCC)nn12`, the IC50 is listed as more than 500 nM against Phosphodiesterase 3, more than 500 nM against Phosphodiesterase 4 and 300 nM at Phosphodiesterase 1. For the same compound, the pIC50 in experiment [1] is 8.30.
Consider `CCCc1nc(C)c2c(=O)[nH]c(-c3cc(S(=O)(=O)N4CCN(C)CC4)ccc3OCC)nn12`, for which the IC50 against Phosphodiesterase 3 is on record as more than 500 nM; against Phosphodiesterase 1, 300 nM.
Take `CCCc1nn(C)c2c(=O)[nH]c(-c3ccccc3OCC)nc12`: the IC50 against Phosphodiesterase 3 and on Phosphodiesterase 4 was more than 500 nM in each case. Besides, in experiment [1], the pIC50 is 7.40.
